In this assay the target is T1, 5-HT2A receptor (Homo sapiens, UniProt P28223).
T1 construct: expressed in transfected cells; host or cells: NIH3T3 cells, pSI expression vector
The experiment in a line: R-SAT functional receptor assay. The class given is cell-based. As to conditions: for Emax: 120 h. How it is done: The functional receptor assay, Receptor Selection and Amplification Technology (R-SAT), was used (with minor modifications from that previously described U.S. Pat. No. 5,707,798) to screen compounds for efficacy at the 5-HT2A receptor. Briefly, NIH3T3 cells were grown in 96 well tissue culture plates to 70-80% confluence. Cells were transfected for 12-16 hours with plasmid DNAs using superfect (Qiagen Inc.) as per manufacture's protocols. R-SAT's were generally performed with 50 ng/well of receptor and 20 ng/well of Beta-galactosidase plasmid DNA. All receptor and G-protein constructs used were in the pSI mammalian expression vector (Promega Inc) as described in U.S. Pat. No. 5,707,798. The 5HT2A receptor gene was amplified by nested PCR from brain cDNA using the oligodeoxynucleotides based on the published sequence (see Saltzman et. al. Biochem. Biophys. Res. Comm. 181:1469-78 (1991)). Large-scale transfections, cells were transfected for 12-16 hours, then trypsinized and frozen in DMSO. Frozen cells were later thawed, plated at 10,000-40,000 cells per well of a 96 well plate that contained drug. With both methods, cells were then grown in a humidified atmosphere with 5% ambient CO2 for five days. Media was then removed from the plates and marker gene activity was measured by the addition of the beta-galactosidase substrate ONPG (in PBS with 5% NP-40). The resulting colorimetric reaction was measured in a spectrophotometric plate reader (Titertek Inc.)at […]. All data were analyzed using the computer program XLFit (IDBSm). Efficacy is the percent maximal repression compared to repression by a control compound (ritanserin in the case of 5HT2A). pIC50 is the negative of the log(IC50), where IC50 is the calculated concentration in Molar that produces 50% maximal repression.
Briefly, the 5-HT2A receptor, and the alpha subunit of the guanine nucleotide binding protein Gq were transiently transfected into NIH3T3 cells and assayed using the functional receptor assay, Receptor Selection and Amplification Technology (R-SAT) essentially as disclosed in U.S. Pat. No. 5,707,798. Each compound was screened at seven serially diluted concentrations in triplicate. Data were analyzed using least squares fit analysis with GraphPad Prism (San Diego, Calif.), and are reported normalized to percent response.
R-SAT assays (as described in Example 42) were carried out with cells transfected with receptors (listed below) to determine the receptor selectivity profile for compound 26HCH16D. 5HT2A inverse agonist data (IC50 nM; % efficacy) were derived from detailed dose response curves (7 points in triplicate).
The functional receptor assay, Receptor Selection and Amplification Technology (R-SAT), was used (with minor modifications from that previously described U.S. Pat. No. 5,707,798) to screen compounds for efficacy at the 5-HT2A receptor. The RSAT assay was conducted as described herein.
The functional receptor assay, Receptor Selection and Amplification Technology (R-SAT), was used (with minor modifications from that previously described U.S. Pat. No. 5,707,798, which is incorporated herein by reference in its entirety) to screen compounds for efficacy at the 5-HT2A receptor. The RSAT assay was conducted as described herein.

Setting [1] is: compared to ritanserin, read-out: 5HT2A % inhibition.
Where [2] appears, read: pIC50 (average), inverse agonist.
The mark [3] stands for this setting: percent maximal repression compared to ritanserin.
The mark [4] stands for this setting: read-out: Percent Efficacy, compared to ritanserin.
The mark [5] stands for this setting: Table 3, read-out: pIC50 (converted).
The mark [6] stands for this setting: inverse agonist, read-out: pIC50 (average) (converted).
[7] abbreviates: Table 6, read-out: 5HT2A pIC50 (converted).

pIC50: −log10 of the molar value. Where a name gives a salt, the structure may show the parent alone. Read-outs that look alike come from different tables or passages of the source.

T1 sequence (P28223 whole entry): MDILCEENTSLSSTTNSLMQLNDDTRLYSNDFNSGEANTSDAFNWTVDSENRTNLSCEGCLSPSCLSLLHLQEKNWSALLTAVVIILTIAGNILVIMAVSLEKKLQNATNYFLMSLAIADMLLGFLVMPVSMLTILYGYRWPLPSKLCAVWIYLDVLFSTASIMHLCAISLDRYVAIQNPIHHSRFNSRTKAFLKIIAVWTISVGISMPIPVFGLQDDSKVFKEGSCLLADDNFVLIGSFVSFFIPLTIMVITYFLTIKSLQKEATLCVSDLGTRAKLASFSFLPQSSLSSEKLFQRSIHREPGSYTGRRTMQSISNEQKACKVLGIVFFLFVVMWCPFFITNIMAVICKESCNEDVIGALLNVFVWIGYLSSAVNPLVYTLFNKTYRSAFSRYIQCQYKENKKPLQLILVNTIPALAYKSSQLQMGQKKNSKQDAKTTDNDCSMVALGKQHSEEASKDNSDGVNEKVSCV

Take `CC(C)COc1ccc(CN2C(=O)OC3(CCN(C)CC3)[C@@H]2Cc2ccc(F)cc2)cc1` (single isomer, unassigned) [Example 78NLS59, 4-(4-fluorobenzyl)-3-(4-isobutoxybenzyl)-8-methyl-1-oxa-3,8-diaza-spiro[4.5]decan-2-one, hydrochloride]: the Emax (read-out: 5HT2A % inhibition, compared to ritanserin) came to 98%. Besides, for the setting “in words”, the “enantiomer activity at the 5-HT2A receptor” value is on record as “eutomer”.
Consider `CC(C)COc1ccc(CN2C(=O)OC3(CCN(C)CC3)C2Cc2ccc(F)cc2)cc1` (single isomer, unassigned) [Example 78NLS62, 4-(4-fluorobenzyl)-3-(4-isobutoxybenzyl)-8-methyl-1-oxa-3,8-diaza-spiro[4.5]decan-2-one, hydrochloride], for which the Emax under setting [1] turned out to be 89%.
As for `COc1ccc(CC(=O)N(Cc2ccc(C)cc2)C2CCN(CC3CCCCC3)CC2)cc1` [Example 6HCH79-6, N-(1-(Cyclohexylmethyl)piperidin-4-yl)-N-((4-methylphenyl)methyl)-4-methoxy phenylacetamide], the “Percent Efficacy” value was found to be 83%.
For `COc1ccc(CC(=O)N(Cc2ccc(C)cc2)C2CCN(Cc3ccccc3)CC2)cc1` [Example 26HCH17, N-((4-Methylphenyl)methyl)-N-(1-(phenylmethyl)piperidin-4-yl)-4-methoxyphenylacetamide hydrochloride], the Emax (read-out: Percent Efficacy) was 94%. The negative-log IC50 (pIC50) (pIC50, Table 3) is 8.30.
`COc1ccc(CC(=O)N(Cc2ccc(C)cc2)C2CCN(Cc3ccccc3)C2)cc1` (stereo not drawn) [Example 26HCH52, N-((4-Methylphenyl)methyl)-N-(1-(phenylmethyl)pyrrolidin-3-yl)-4-methoxyphenylacetamide] showed a negative-log IC50 (pIC50) under setting [2] of 7.31. Besides, under setting [3], the “Efficacy (average)” value was 98.
As for `Cc1ccc(CN(C(=O)NCc2ccccc2)C2CCNCC2)cc1` [Example 26HCH65, N-((4-Methylphenyl)methyl)-N-(piperidin-4-yl)-N′-phenylmethylcarbamide], the Emax under setting [4] worked out at 103%. Under setting [5], the IC50 was 6.31 nM.
As to `Cc1ccc(CN(C(=O)NCc2ccccc2)C2CCN(Cc3ccccc3Br)CC2)cc1` [Example 26HCH66-03, N-(1-((2-Bromophenyl)methyl)piperidin-4-yl)-N-((4-methylphenyl)methyl)-N′-phenylmethylcarbamide], the pIC50 under setting [2] was 7.42. Besides, the “Efficacy (average)” value under setting [3] was found to be 76.
Take `CCc1ccc(CN2CCC(N(Cc3ccc(C)cc3)C(=O)NCc3ccccc3)CC2)s1` [Example 26HCH66-05, N-(1-((5-Ethylthien-2-yl)methyl)piperidin-4-yl)-N-((4-methylphenyl)methyl)-N′-phenylmethylcarbamide]: the Emax (read-out: Percent Efficacy) turned out to be 126%. In addition, the pIC50 under setting [2] is 7.55 and the pIC50 (pIC50, Table 3) is 8.10. The “Efficacy (average)” value under setting [3] amounted to 109.
For the molecule `COc1ccc(CC(=O)N(Cc2ccc(C)cc2)C2CCNCC2)cc1` [Example 26HCH71B, N-((4-Methylphenyl)methyl)-N-(piperidin-4-yl)-4-methoxyphenylacetamide], the Emax under setting [4] stood at 124%. Further, the IC50 under setting [5] was 12.6 nM.
Taken in the same sequence, the figures for `COc1ccc(CC(=O)N(Cc2ccc(C)cc2)C2CCN(CCC(C)(C)C)CC2)cc1` [Example 26HCH79-5, N-(1-(3,3-Dimethylbutyl)piperidin-4-yl)-N-((4-methylphenyl)methyl)-4-methoxyphenylacetamide] were 94% and 6.31 nM.
For the molecule `COc1ccc(CC(=O)N(Cc2ccc(C)cc2)C2CCN(Cc3ccccc3O)CC2)cc1` [Example 26HCH79-10, N-(1-((2-Hydroxyphenyl)methyl)piperidin-4-yl)-N-((4-methylphenyl)methyl)-4-methoxyphenylacetamide], for the setting “read-out: Percent Efficacy”, the Emax came out at 102%. For the same molecule, the pIC50 (pIC50, Table 3) was 7.80.
`COc1ccc(CC(=O)N(Cc2ccc(F)cc2)C2CCNCC2)cc1` [Example 26HCH80-7, N-((4-Fluorophenyl)methyl)-N-(piperidin-4-yl)-4-methoxyphenylacetamide]: the “Efficacy (average)” value amounted to 87. In addition, the IC50 under setting [6] was 20 nM.
Taken in the same sequence, the figures for `COc1ccc(CC(=O)N(Cc2cccc(Br)c2)C2CCNCC2)cc1` [Example 26HCH80-10, N-((3-Bromophenyl)methyl)-N-(piperidin-4-yl)-4-methoxyphenylacetamide] were 91 and 61.7 nM.
Take `CC(C)COc1ccc(CN2C(=O)OC3(CCN(CC4CC4)CC3)C2Cc2ccc(F)cc2)cc1` (stereo not drawn) [Example 38-PH16-HCl, 8-Cyclopropylmethyl-4-(4-fluorobenzyl)-3-(4-isobutoxybenzyl)-1-oxa-3,8-diaza-spiro[4.5]decan-2-one, hydrochloride]: the Emax under setting [1] amounted to 95%. For the same molecule, the IC50 under setting [7] is 7.94 nM.
In the same order, the values of `CC(C)COc1ccc(CN2C(=O)OC3(CCN(CCN4CCNC4=O)CC3)C2Cc2ccc(F)cc2)cc1` (stereo not drawn) [Example 38-PH17-HCl, 4-(4-Fluorobenzyl)-3-(4-isobutoxybenzyl)-8-[2-(2-oxo-imidazolidin-1-yl)-ethyl]-1-oxa-3,8-diaza-spiro[4.5]decan-2-one, hydrochloride] are 84% and 1.58 nM.
Taken in the same sequence, the figures for `CCN1CCC2(CC1)OC(=O)N(Cc1ccc(OCC(C)C)cc1)C2Cc1ccc(F)cc1` (stereo not drawn) [Example 38-PH20, 4-(4-Fluorobenzyl)-3-(4-isobutoxybenzyl)-8-ethyl-1-oxa-3,8-diaza-spiro[4.5]decan-2-one, hydrochloride] were 100% and 0.501 nM.
For the molecule `COc1ccc(CC(=O)N(Cc2ccc(C)cc2)C2CCN(CC3CCCCC3)CC2)cc1` [Example 42ELH45, 2-(4-Methoxyphenyl)-N-(4-methylbenzyl)-N-(1-cyclohexylmethylpiperidin-4-yl)acetamide], the “Percent Efficacy” value turned out to be 108%.
In the case of `COc1ccc(CC(=O)N(Cc2ccc(C)cc2)C2CCN(C3CCCC3)CC2)cc1` [Example 42ELH75, 2-(4-Methoxyphenyl)-N-(4-methylbenzyl)-N-(1-cyclopentylpiperidin-4-yl)acetamide], the Emax under setting [4] is 109%. Moreover, the IC50 under setting [5] was 5.01 nM.
In the same order, the values of `COc1ccc(CC(=O)N(Cc2ccc(C)cc2)C2CCN(C(C)C)CC2)cc1` [Example 42ELH79, 2-(4-Methoxyphenyl)-N-(4-methylbenzyl)-N-(1-isopropylpiperidin-4-yl)acetamide] are 110% and 3.16 nM.
In the same order, the values of `CCN1CCC(N(Cc2ccc(C)cc2)C(=O)Cc2ccc(OC)cc2)CC1` [Example 42ELH80, 2-(4-Methoxyphenyl)-N-(4-methylbenzyl)-N-(1-ethylpiperidin-4-yl)acetamide] are 122% and 3.16 nM.
For the molecule `CCN1CCC(N(Cc2ccc(Cl)cc2)C(=O)Cc2ccc(OC)cc2)CC1` [Example 42ELH85, 2-(4-Methoxyphenyl)-N-(4-chlorbenzyl)-N-(1-ethylpiperidin-4-yl)acetamide], the “Percent Efficacy” value (compared to ritanserin) stood at 118%.
With `COc1ccc(CC(=O)N(Cc2ccc(Cl)cc2)C2CCN(C3CCCC3)CC2)cc1` [Example 42ELH91, 2-(4-Methoxyphenyl)-N-(4-chlorbenzyl)-N-(1-cyclopentylpiperidin-4-yl)acetamide], the “Percent Efficacy” value (compared to ritanserin) is listed as 108%.
For the molecule `Cc1ccc(CN(C(=O)Cc2ccc(Cl)cc2)C2CCN(C(C)C)CC2)cc1` [Example 47AKU-7, 2-(4-Chlorophenyl)-N-(4-methylbenzyl)-N-(1-isopropylpiperidin-4-yl)-acetamide], under setting [4], the Emax is 120%. The IC50 under setting [5] was 7.94 nM.
In the same order, the values of `Cc1ccc(CN(C(=O)Cc2ccc(Cl)cc2)C2CCN(C)CC2)cc1` [Example 47AKU-8, 2-(4-Chlorophenyl)-N-(4-methylbenzyl)-N-(1-methylpiperidin-4-yl)-acetamide] are 113% and 7.94 nM.

Values taken from patent publication US20080051429A1, “USE OF 4-AMINO-PIPERIDINES FOR TREATING SLEEP DISORDERS” (priority 2006, published 2008).
